Earlier results in patent US12721837B2, “Stable pharmaceutical compositions of clonidine” (AZURITY PHARMACEUTICALS, INC., priority 2021, dated 2026).

Tests used:
[1] = after oral administration

Clc1cccc(Cl)c1N=C1NCCN1 [Clonidine, N-(2,6-dichlorophenyl)-4,5-dihydro-1H-imidazol-2-amine]
Absorption from the gastrointestinal tract [1]: almost completely absorbed
Solubility in water: freely soluble
